Results as given in patent US11248010B2, “Compounds, compositions, and methods for modulating CFTR” (Proteostasis Therapeutics, Inc., priority 2016, dated 2022).

Biological target: T1, ΔF508-CFTR (Homo sapiens, UniProt P13569, DEL508-508)
T1 construct: primary lung epithelial cells (hBEs) homozygous for the Cystic Fibrosis-causing ΔF508 mutation are differentiated; endogenous in cells; host or cells: primary human bronchial epithelial cells (hBEs) homozygous for ΔF508, differentiated at an air-liquid interface
T1 sequence (P13569 with tags, fused parts or gaps DEL508-508): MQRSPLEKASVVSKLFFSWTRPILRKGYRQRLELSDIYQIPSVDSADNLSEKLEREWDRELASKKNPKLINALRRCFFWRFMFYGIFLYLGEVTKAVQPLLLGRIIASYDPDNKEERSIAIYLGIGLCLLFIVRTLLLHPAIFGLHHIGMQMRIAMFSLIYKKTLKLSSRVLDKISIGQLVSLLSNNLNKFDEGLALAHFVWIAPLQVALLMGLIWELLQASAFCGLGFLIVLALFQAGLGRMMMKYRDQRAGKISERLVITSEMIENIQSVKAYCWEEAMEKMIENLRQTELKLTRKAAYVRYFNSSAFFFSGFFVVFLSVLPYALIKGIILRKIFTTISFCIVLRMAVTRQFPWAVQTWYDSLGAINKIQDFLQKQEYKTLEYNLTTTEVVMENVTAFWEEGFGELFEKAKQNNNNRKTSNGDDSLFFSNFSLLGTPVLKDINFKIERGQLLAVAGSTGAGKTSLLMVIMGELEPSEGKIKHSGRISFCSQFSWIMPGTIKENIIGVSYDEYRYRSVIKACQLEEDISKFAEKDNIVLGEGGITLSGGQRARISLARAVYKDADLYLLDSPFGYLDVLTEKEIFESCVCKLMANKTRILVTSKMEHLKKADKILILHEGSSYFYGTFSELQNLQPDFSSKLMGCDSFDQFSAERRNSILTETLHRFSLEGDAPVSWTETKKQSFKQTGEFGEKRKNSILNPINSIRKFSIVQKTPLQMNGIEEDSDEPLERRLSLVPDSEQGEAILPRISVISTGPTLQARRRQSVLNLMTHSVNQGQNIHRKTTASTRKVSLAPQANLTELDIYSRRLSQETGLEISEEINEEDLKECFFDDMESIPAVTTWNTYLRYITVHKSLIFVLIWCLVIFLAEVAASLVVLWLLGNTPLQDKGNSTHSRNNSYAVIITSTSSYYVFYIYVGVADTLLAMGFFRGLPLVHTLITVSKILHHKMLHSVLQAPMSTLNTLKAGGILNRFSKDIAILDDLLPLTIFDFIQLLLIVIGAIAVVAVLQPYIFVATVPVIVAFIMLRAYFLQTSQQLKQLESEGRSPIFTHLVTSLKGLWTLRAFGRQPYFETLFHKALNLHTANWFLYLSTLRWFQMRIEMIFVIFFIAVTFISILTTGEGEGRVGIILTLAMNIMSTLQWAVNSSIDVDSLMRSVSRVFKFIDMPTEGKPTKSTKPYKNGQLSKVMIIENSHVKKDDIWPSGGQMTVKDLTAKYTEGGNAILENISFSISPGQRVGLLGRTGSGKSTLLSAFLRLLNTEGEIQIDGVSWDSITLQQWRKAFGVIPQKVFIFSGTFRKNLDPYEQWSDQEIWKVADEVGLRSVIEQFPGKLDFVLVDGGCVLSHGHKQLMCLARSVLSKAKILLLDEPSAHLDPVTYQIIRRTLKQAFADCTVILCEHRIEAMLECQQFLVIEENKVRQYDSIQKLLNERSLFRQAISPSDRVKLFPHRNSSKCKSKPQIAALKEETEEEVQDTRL
Assay: Ussing measurements (CFTR activity assay)
Type: cell-based
Details: compound at 1 uM; activity relative to a corrector (VX-809 (3 uM)); primary lung epithelial cells (hBEs) homozygous for ΔF508; CFTRinh-172-inhibitable short-circuit current
Method: As discussed above, Ussing measurements are used to measure CFTR activity. In this method, primary lung epithelial cells (hBEs) homozygous for the Cystic Fibrosis-causing ΔF508 mutation are differentiated for a minimum of 4 weeks in an air-liquid interface on SnapWell filter plates prior to the Ussing measurements. Cells are apically mucus-washed for 30 minutes prior to treatment with compounds. The basolateral media is removed and replaced with media containing the compound of interest diluted to its final concentration from DMSO stocks. Treated cells are incubated at 37° C. and 5% CO2 for 24 hours. At the end of the treatment period, the cells on filters are transferred to the Ussing chamber and equilibrated for 30 minutes. The short-circuit current is measured in voltage clamp-mode (Vhold=0 mV), and the entire assay is conducted at a temperature of 36° C.-36.5° C. Once the voltages are stabilized, the chambers are clamped, and data is recorded by pulse readings every 5 seconds. Following baseline current stabilization, the following additions can be applied and the changes in current and resistance of the cells can be monitored:
1. Benzamil to the apical chamber to inhibit ENaC sodium channel.
2. Forskolin to both chambers to activate ΔF508-CFTR by phosphorylation.
3. VX-770 to the apical chamber to potentiate ΔF508-CFTR channel opening.
4. CFTRinh-172 to the apical chamber to inhibit ΔF508-CFTR Cl— conductance.
The inhibitable current (that current that is blocked by CFTRinh-172) is measured as the specific activity of the ΔF508-CFTR channel, and increases in response to compound in this activity over that observed in vehicle-treated samples are identified as the correction of ΔF508-CFTR function imparted by the compound tested.
(+ indicates activity <200% of a corrector (VX-809 (3 uM)) with compound at 1 uM; ++ indicates activity >200% of a corrector (VX-809 (3 uM)) with compound at 1 uM.

Row | SMILES | Activity
1 | CC(C)(C)c1cc([Si](C)(C)C)c(NC(=O)c2c[nH]c3ccccc3c2=O)cc1O [Compound 8, N-[4-tert-Butyl-5-hydroxy-2-(trimethylsilyl)phenyl]-4-oxo-1,4-dihydroquinoline-3-carboxamide] | ++ (activity >200% of a corrector (VX-809 (3 uM)) with compound at 1 uM)
2 | CC(C)(C)c1cc([Si](C)(C)C(C)(C)C)c(O)cc1NC(=O)c1c[nH]c2ccccc2c1=O [Compound 5, N-(2-tert-Butyl-4-(tert-butyldimethylsilyl)-5-hydroxyphenyl)-4-oxo-1,4-dihydroquinoline-3-carboxamide] | ++ (activity >200% of a corrector (VX-809 (3 uM)) with compound at 1 uM)
3 | CC[Si](C)(CC)c1cc(C(C)(C)C)c(NC(=O)c2c[nH]c3ccccc3c2=O)cc1O [Compound 3, N-[2-tert-Butyl-4-[diethyl(methyl)silyl]-5-hydroxyphenyl]-4-oxo-1,4-dihydroquinoline-3-carboxamide] | ++ (activity >200% of a corrector (VX-809 (3 uM)) with compound at 1 uM)
4 | C[Si](C)(C)c1cc(F)c(NC(=O)c2c[nH]c3ccccc3c2=O)cc1O [Compound 18, N-(2-Fluoro-5-hydroxy-4-(trimethylsilyl)phenyl)-4-oxo-1,4-dihydroquinoline-3-carboxamide] | ++ (activity >200% of a corrector (VX-809 (3 uM)) with compound at 1 uM)
5 | [2H]C([2H])([2H])[Si](c1cc([Si](C([2H])([2H])[2H])(C([2H])([2H])[2H])C([2H])([2H])[2H])c(NC(=O)c2c[nH]c3ccccc3c2=O)cc1O)(C([2H])([2H])[2H])C([2H])([2H])[2H] [Compound 13, N-(5-Hydroxy-2,4-bis(tris(methyl-d3)silyl)phenyl)-4-oxo-1,4-dihydroquinoline-3-carboxamide] | ++ (activity >200% of a corrector (VX-809 (3 uM)) with compound at 1 uM)
6 | CC(C)(C)c1cc([Si](C)(C)C)c(O)cc1NC(=O)c1c[nH]c2ccccc2c1=O [Compound 1, N-[2-tert-Butyl-5-hydroxy-4-(trimethylsilyl)phenyl]-4-oxo-1,4-dihydroquinoline-3-carboxamide] | ++ (activity >200% of a corrector (VX-809 (3 uM)) with compound at 1 uM)
7 | C[Si](C)(C)c1cc(C(F)(F)F)c(NC(=O)c2c[nH]c3ccccc3c2=O)cc1O [Compound 19, N-(5-Hydroxy-2-(trifluoromethyl)-4-(trimethylsilyl)phenyl)-4-oxo-1,4-dihydroquinoline-3-carboxamide] | ++ (activity >200% of a corrector (VX-809 (3 uM)) with compound at 1 uM)
8 | C[Si](C)(C)c1cc([Si](C)(C)C)c(NC(=O)c2c[nH]c3ccccc3c2=O)cc1O [Compound 11, N-(5-Hydroxy-2,4-bis(trimethylsilyl)phenyl)-4-oxo-1,4-dihydroquinoline-3-carboxamide] | ++ (activity >200% of a corrector (VX-809 (3 uM)) with compound at 1 uM)
9 | CC(C)(C)c1cc([Si](C)(C)C(C)(C)C)c(NC(=O)c2c[nH]c3ccccc3c2=O)cc1O [Compound 10, N-(4-(tert-Butyl)-2-(tert-butyldimethylsilyl)-5-hydroxyphenyl)-4-oxo-1,4-dihydroquinoline-3-carboxamide] | ++ (activity >200% of a corrector (VX-809 (3 uM)) with compound at 1 uM)
10 | CC[Si](C)(C)c1cc(C(C)(C)C)c(NC(=O)c2c[nH]c3ccccc3c2=O)cc1O [Compound 2, N-[2-tert-Butyl-4-(ethyldimethylsilyl)-5-hydroxyphenyl]-4-oxo-1,4-dihydroquinoline-3-carboxamide] | ++ (activity >200% of a corrector (VX-809 (3 uM)) with compound at 1 uM)
11 | CC(C)[Si](C)(C)c1cc(C(C)(C)C)c(NC(=O)c2c[nH]c3ccccc3c2=O)cc1O [Compound 6, N-[2-tert-Butyl-4-[dimethyl(propan-2-yl)silyl]-5-hydroxyphenyl]-4-oxo-1,4-dihydroquinoline-3-carboxamide] | ++ (activity >200% of a corrector (VX-809 (3 uM)) with compound at 1 uM)
12 | C[Si](C)(C)c1ccc(NC(=O)c2c[nH]c3ccccc3c2=O)cc1O [Compound 17, N-(3-Hydroxy-4-(trimethylsilyl)phenyl)-4-oxo-1,4-dihydroquinoline-3-carboxamide] | ++ (activity >200% of a corrector (VX-809 (3 uM)) with compound at 1 uM)
13 | CC[Si](CC)(CC)c1cc(C(C)(C)C)c(NC(=O)c2c[nH]c3ccccc3c2=O)cc1O [Compound 4, N-(2-(tert-Butyl)-5-hydroxy-4-(triethylsilyl)phenyl)-4-oxo-1,4-dihydroquinoline-3-carboxamide] | + (activity <200% of a corrector (VX-809 (3 uM)) with compound at 1 uM)
14 | [2H]C([2H])([2H])[Si](c1cc(C(C)(C)C)c(NC(=O)c2c[nH]c3ccccc3c2=O)cc1O)(C([2H])([2H])[2H])C([2H])([2H])[2H] [Compound 12, N-(2-(tert-Butyl)-5-hydroxy-4-(tris(methyl-d3)silyl)phenyl)-4-oxo-1,4-dihydroquinoline-3-carboxamide] | ++ (activity >200% of a corrector (VX-809 (3 uM)) with compound at 1 uM)
15 | CC(C)(C)c1cc([Si](C)(C)c2ccccc2)c(O)cc1NC(=O)c1c[nH]c2ccccc2c1=O [Compound 7, N-(2-(tert-Butyl)-4-(dimethyl(phenyl)silyl)-5-hydroxyphenyl)-4-oxo-1,4-dihydroquinoline-3-carboxamide] | ++ (activity >200% of a corrector (VX-809 (3 uM)) with compound at 1 uM)
